US7118895B2, “Process for producing aglycon by using diglycosidase and flavor-improved food containing the aglycon and converting agent to be used in the process” (Amano Enzyme Inc., priority 2000, dated 2006)

Test system: Crude diglycosidase
Assay: Examination of temperature in the conversion into isoflavone aglycons by diglycosidase using soybean materials
Assay type: biochemical, Penicillium multicolor IAM7153
Set-up: Decomposition efficiency of glycitin family in roasted soy flour / Decomposition efficiency of daidzin family in roasted soy flour / Decomposition efficiency of genistin family in soymilk / Decomposition efficiency of daidzin family in soymilk / Decomposition efficiency of glycitin family in defatted soybean / Decomposition efficiency of daidzin family in defatted soybean: concentration or dose not given beside the values
How it was run: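 Soybean materials (50 mg) suspended in 20 mM acetate buffer pH 4.0 reacted with crude diglycosidase diluted to 1.88 AU/mL at 80, 65, 55, 45, 37 or 30° C. Reactions stopped with ethanol at 0, 1, 3 and 6 h; isoflavone glycosides and aglycons in supernatant detected by HPLC.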

[1] = 30° C., heat treatment of enzyme no, reaction time 0 h
[2] = 30° C., heat treatment of enzyme no, reaction time 1 h
[3] = 30° C., heat treatment of enzyme no, reaction time 3 h
[4] = 30° C., heat treatment of enzyme no, reaction time 6 h
[5] = 30° C., heat treatment of enzyme yes, reaction time 6 h
[6] = 45° C., heat treatment of enzyme no, reaction time 0 h
[7] = 45° C., heat treatment of enzyme no, reaction time 1 h
[8] = 45° C., heat treatment of enzyme no, reaction time 3 h
[9] = 45° C., heat treatment of enzyme no, reaction time 6 h
[10] = 45° C., heat treatment of enzyme yes, reaction time 6 h
[11] = 45 °C, heat treatment of enzyme: no, 0 h
[12] = 45 °C, heat treatment of enzyme: no, 1 h
[13] = 45 °C, heat treatment of enzyme: no, 3 h
[14] = 45 °C, heat treatment of enzyme: no, 6 h
[15] = 45 °C, heat treatment of enzyme: yes, 6 h
[16] = 55° C., heat treatment of enzyme no, reaction time 0 h
[17] = 55° C., heat treatment of enzyme no, reaction time 1 h
[18] = 55° C., heat treatment of enzyme no, reaction time 3 h
[19] = 55° C., heat treatment of enzyme no, reaction time 6 h
[20] = 55° C., heat treatment of enzyme yes, reaction time 6 h
[21] = 55 °C, heat treatment of enzyme: no, 0 h
[22] = 55 °C, heat treatment of enzyme: no, 1 h
[23] = 55 °C, heat treatment of enzyme: no, 3 h
[24] = 55 °C, heat treatment of enzyme: no, 6 h
[25] = 55 °C, heat treatment of enzyme: yes, 6 h
[26] = 65° C., heat treatment of enzyme no, reaction time 0 h
[27] = 65° C., heat treatment of enzyme no, reaction time 1 h
[28] = 65° C., heat treatment of enzyme no, reaction time 3 h
[29] = 65° C., heat treatment of enzyme no, reaction time 6 h
[30] = 65° C., heat treatment of enzyme yes, reaction time 6 h
[31] = 65 °C, heat treatment of enzyme: no, 0 h
[32] = 65 °C, heat treatment of enzyme: no, 1 h
[33] = 65 °C, heat treatment of enzyme: no, 3 h
[34] = 65 °C, heat treatment of enzyme: no, 6 h
[35] = 65 °C, heat treatment of enzyme: yes, 6 h
[36] = 80° C., heat treatment of enzyme no, reaction time 0 h
[37] = 80° C., heat treatment of enzyme no, reaction time 1 h
[38] = 80° C., heat treatment of enzyme no, reaction time 3 h
[39] = 80° C., heat treatment of enzyme no, reaction time 6 h
[40] = 80° C., heat treatment of enzyme yes, reaction time 6 h
[41] = 80 °C, heat treatment of enzyme: no, 0 h
[42] = 80 °C, heat treatment of enzyme: no, 1 h
[43] = 80 °C, heat treatment of enzyme: no, 3 h
[44] = 80 °C, heat treatment of enzyme: no, 6 h
[45] = 80 °C, heat treatment of enzyme: yes, 6 h

O=c1c(-c2ccc(O)cc2)coc2cc(O[C@@H]3O[C@H](CO)[C@@H](O)[C@H](O)[C@H]3O)ccc12 [daidzin]
Decomposition efficiency of daidzin family in concentrated soybean protein [1]: 52.3% | Decomposition efficiency of daidzin family in defatted soybean [1]: 42.2% | Decomposition efficiency of daidzin family in concentrated soybean protein [2]: 29.5% | Decomposition efficiency of daidzin family in defatted soybean [2]: not detected | Decomposition efficiency of daidzin family in concentrated soybean protein [3]: 13.4% | Decomposition efficiency of daidzin family in defatted soybean [3]: not detected | Decomposition efficiency of daidzin family in concentrated soybean protein [4]: 4.0% | Decomposition efficiency of daidzin family in defatted soybean [4]: not detected | Decomposition efficiency of daidzin family in concentrated soybean protein [5]: 54.5% | Decomposition efficiency of daidzin family in defatted soybean [5]: not detected | Decomposition efficiency of daidzin family in soymilk (30 °C, heat treatment of enzyme: no, 0 h): 34.1% | Decomposition efficiency of daidzin family in soymilk (30 °C, heat treatment of enzyme: no, 1 h): not detected | Decomposition efficiency of daidzin family in soymilk (30 °C, heat treatment of enzyme: no, 3 h): not detected | Decomposition efficiency of daidzin family in soymilk (30 °C, heat treatment of enzyme: no, 6 h): not detected | Decomposition efficiency of daidzin family in soymilk (30 °C, heat treatment of enzyme: yes, 6 h): 34.8% | Decomposition efficiency of daidzin family in roasted soy flour (35 °C, heat treatment of enzyme: no, 0 h): 48.6% | Decomposition efficiency of daidzin family in roasted soy flour (35 °C, heat treatment of enzyme: no, 1 h): 11.7% | Decomposition efficiency of daidzin family in roasted soy flour (35 °C, heat treatment of enzyme: no, 3 h): not detected | Decomposition efficiency of daidzin family in roasted soy flour (35 °C, heat treatment of enzyme: no, 6 h): not detected | Decomposition efficiency of daidzin family in roasted soy flour (35 °C, heat treatment of enzyme: yes, 6 h): 50.3% | Decomposition efficiency of daidzin family in concentrated soybean protein [6]: 52.4% | Decomposition efficiency of daidzin family in defatted soybean [6]: 40.5% | Decomposition efficiency of daidzin family in concentrated soybean protein [7]: 10.6% | Decomposition efficiency of daidzin family in defatted soybean [7]: not detected | Decomposition efficiency of daidzin family in concentrated soybean protein [8]: 9.6% | Decomposition efficiency of daidzin family in defatted soybean [8]: not detected | Decomposition efficiency of daidzin family in concentrated soybean protein [9]: 1.7% | Decomposition efficiency of daidzin family in defatted soybean [9]: not detected | Decomposition efficiency of daidzin family in concentrated soybean protein [10]: 94.3% | Decomposition efficiency of daidzin family in defatted soybean [10]: not detected | Decomposition efficiency of daidzin family in roasted soy flour [11]: 48.6% | Decomposition efficiency of daidzin family in soymilk [11]: 33.9% | Decomposition efficiency of daidzin family in roasted soy flour [12]: 3.6% | Decomposition efficiency of daidzin family in soymilk [12]: 6.8% | Decomposition efficiency of daidzin family in roasted soy flour [13]: 2.7% | Decomposition efficiency of daidzin family in soymilk [13]: 6.9% | Decomposition efficiency of daidzin family in roasted soy flour [14]: 5.4% | Decomposition efficiency of daidzin family in soymilk [14]: 6.9% | Decomposition efficiency of daidzin family in roasted soy flour [15]: 49.4% | Decomposition efficiency of daidzin family in soymilk [15]: 36.0% | Decomposition efficiency of daidzin family in concentrated soybean protein [16]: 52.5% | Decomposition efficiency of daidzin family in defatted soybean [16]: 42.2% | Decomposition efficiency of daidzin family in concentrated soybean protein [17]: 1.0% | Decomposition efficiency of daidzin family in defatted soybean [17]: not detected | Decomposition efficiency of daidzin family in concentrated soybean protein [18]: not detected | Decomposition efficiency of daidzin family in defatted soybean [18]: not detected | Decomposition efficiency of daidzin family in concentrated soybean protein [19]: not detected | Decomposition efficiency of daidzin family in defatted soybean [19]: not detected | Decomposition efficiency of daidzin family in concentrated soybean protein [20]: 54.6% | Decomposition efficiency of daidzin family in defatted soybean [20]: not detected | Decomposition efficiency of daidzin family in roasted soy flour [21]: 48.8% | Decomposition efficiency of daidzin family in soymilk [21]: 34.2% | Decomposition efficiency of daidzin family in roasted soy flour [22]: not detected | Decomposition efficiency of daidzin family in soymilk [22]: not detected | Decomposition efficiency of daidzin family in roasted soy flour [23]: not detected | Decomposition efficiency of daidzin family in soymilk [23]: not detected | Decomposition efficiency of daidzin family in roasted soy flour [24]: not detected | Decomposition efficiency of daidzin family in soymilk [24]: not detected | Decomposition efficiency of daidzin family in roasted soy flour [25]: 51.1% | Decomposition efficiency of daidzin family in soymilk [25]: 40.7% | Decomposition efficiency of daidzin family in concentrated soybean protein [26]: 52.3% | Decomposition efficiency of daidzin family in defatted soybean [26]: 40.5% | Decomposition efficiency of daidzin family in concentrated soybean protein [27]: 1.8% | Decomposition efficiency of daidzin family in defatted soybean [27]: not detected | Decomposition efficiency of daidzin family in concentrated soybean protein [28]: 1.7% | Decomposition efficiency of daidzin family in defatted soybean [28]: not detected | Decomposition efficiency of daidzin family in concentrated soybean protein [29]: 1.7% | Decomposition efficiency of daidzin family in defatted soybean [29]: not detected | Decomposition efficiency of daidzin family in concentrated soybean protein [30]: 53.2% | Decomposition efficiency of daidzin family in defatted soybean [30]: 32.8% | Decomposition efficiency of daidzin family in roasted soy flour [31]: 48.6% | Decomposition efficiency of daidzin family in soymilk [31]: 34.1% | Decomposition efficiency of daidzin family in roasted soy flour [32]: not detected | Decomposition efficiency of daidzin family in soymilk [32]: not detected | Decomposition efficiency of daidzin family in roasted soy flour [33]: not detected | Decomposition efficiency of daidzin family in soymilk [33]: not detected | Decomposition efficiency of daidzin family in roasted soy flour [34]: not detected | Decomposition efficiency of daidzin family in soymilk [34]: not detected | Decomposition efficiency of daidzin family in roasted soy flour [35]: 49.7% | Decomposition efficiency of daidzin family in soymilk [35]: 48.7% | Decomposition efficiency of daidzin family in concentrated soybean protein [36]: 52.4% | Decomposition efficiency of daidzin family in defatted soybean [36]: 40.5% | Decomposition efficiency of daidzin family in concentrated soybean protein [37]: 22.6% | Decomposition efficiency of daidzin family in defatted soybean [37]: 7.8% | Decomposition efficiency of daidzin family in concentrated soybean protein [38]: 23.3% | Decomposition efficiency of daidzin family in defatted soybean [38]: 19.2% | Decomposition efficiency of daidzin family in concentrated soybean protein [39]: 25.5% | Decomposition efficiency of daidzin family in defatted soybean [39]: 30.4% | Decomposition efficiency of daidzin family in concentrated soybean protein [40]: 54.5% | Decomposition efficiency of daidzin family in defatted soybean [40]: 60.9% | Decomposition efficiency of daidzin family in roasted soy flour [41]: 48.6% | Decomposition efficiency of daidzin family in soymilk [41]: 33.9% | Decomposition efficiency of daidzin family in roasted soy flour [42]: 3.2% | Decomposition efficiency of daidzin family in soymilk [42]: 8.9% | Decomposition efficiency of daidzin family in roasted soy flour [43]: 4.4% | Decomposition efficiency of daidzin family in soymilk [43]: 23.9% | Decomposition efficiency of daidzin family in roasted soy flour [44]: 12.5% | Decomposition efficiency of daidzin family in soymilk [44]: 42.9% | Decomposition efficiency of daidzin family in roasted soy flour [45]: 51.3% | Decomposition efficiency of daidzin family in soymilk [45]: 69.5%
